Source: ChEMBL document CHEMBL1126104, “Synthesis and antiviral activity of some new S-adenosyl-L-homocysteine derivatives” (1992)
≈ marks a conversion by molar mass, not a printed value.

Tests used:
Coxsackievirus B4 [1] = assay: Antiviral activity against coxsackie B4 virus in HeLa cell culture lines; format: functional; settings: Enterovirus B
Human respirovirus 3 = assay: Antiviral activity against parainfluenza virus type 3 in Vero cell culture lines; format: functional
Sindbis virus = assay: Antiviral activity against sindbis virus in Vero cell culture lines; format: functional
[2] = tested on: Vesicular stomatitis virus; assay: Antiviral activity against vesicular stomatitis virus (VSV) in primary rabbit kidney (PRK) / embryonic skin-muscle (E6SM) fibroblast culture lines; format: functional; settings: Muscle tissue
[3] = tested on: Vesicular stomatitis virus; assay: Antiviral activity against vesicular stomatitis virus (VSV) in HeLa cell culture lines,; format: functional
[4] = tested on: Human immunodeficiency virus 1; assay: Antiviral activity against (HIV-1) in MT-4 cells Value in parentheses is inhibitory concentration for cell growth (MT-4); format: functional, MT4
Vaccinia virus = assay: Antiviral activity against vaccinia virus (VV) in primary rabbit kidney (PRK) / embryonic skin-muscle (E6SM) fibroblast culture lines; format: functional; settings: Orthopoxvirus vaccinia, Muscle tissue
Poliovirus 1 = assay: Antiviral activity against polio virus type 1 in HeLa cell culture lines; format: functional; settings: Enterovirus C
Semliki Forest virus = assay: Antiviral activity against semliki forest virus (SFV) in Vero cell culture lines; format: functional
Human alphaherpesvirus 2 = assay: Antiviral activity against HSV-2(G) strain in primary rabbit kidney (PRK) / embryonic skin-muscle (E6SM) fibroblast culture lines; format: functional; settings: Human alphaherpesvirus 2, Muscle tissue
Coxsackievirus B4 [5] = assay: Antiviral activity against coxsackie B4 in Vero cell culture lines; format: functional; settings: Enterovirus B
Human alphaherpesvirus 1 = assay: Antiviral activity against HSV-1(KOS) strain in primary rabbit kidney (PRK) / embryonic skin-muscle (E6SM) fibroblast culture lines; format: functional; settings: Human alphaherpesvirus 1, Muscle tissue
[6] = tested on: Mammalian orthoreovirus 1; assay: Antiviral activity against reovirus type 1 in Vero cell culture lines; format: functional

Structure (SMILES) | MIC (Coxsackievirus B4 [1]) [µg/mL] | MIC (Human respirovirus 3) [µg/mL] | MIC (Sindbis virus) [µg/mL] | MIC [2] [µg/mL] | MIC [3] [µg/mL] | MIC [4] [µg/mL] | MIC (Vaccinia virus) [µg/mL] | MIC (Poliovirus 1) [µg/mL] | MIC (Semliki Forest virus) [µg/mL] | MIC (Human alphaherpesvirus 2) [µg/mL] | MIC (Coxsackievirus B4 [5]) [µg/mL] | MIC (Human alphaherpesvirus 1) [µg/mL] | MIC [6] [µg/mL]
CC(=O)NC(CCSC[C@H]1OC(n2ccc3c(N)ncnc32)[C@H](O)[C@@H]1O)C(=O)OC(C)C (some centres undefined) | 70 (≈ 150 µM) | > 100 | > 100 | 10 (≈ 21.4 µM) | 20 (≈ 42.8 µM) | > 4 | 10 (≈ 21.4 µM) | 100 (≈ 214 µM) | > 200 | 40 (≈ 85.6 µM) | 40 (≈ 85.6 µM) | > 100 | > 70
CC(C)(C)C(=O)ONC(CCSC[C@H]1OC(n2ccc3c(N)ncnc32)[C@H](O)[C@@H]1O)C(=O)O (some centres undefined) | > 400 | > 400 | > 400 | > 100 | > 400 | > 200 | 20 (≈ 41.4 µM) | > 400 | > 400 | > 100 | > 400 | > 100 | > 400
Nc1ncnc2c([C@H]3CC[C@@H](CCl)O3)n[nH]c12 | > 400 | > 200 | > 200 | > 400 | > 400 | > 100 | > 400 | > 400 | > 400 | > 200 | > 200 | > 200 | > 200
Nc1ncnc2c1CCN2[C@@H]1O[C@H](CO)C[C@H]1O | 7 (≈ 27.7 µM) | 7 (≈ 27.7 µM) | 30 (≈ 119 µM) | > 10 | > 10 | – | 7 (≈ 27.7 µM) | 7 (≈ 27.7 µM) | > 40 | 7 (≈ 27.7 µM) | 7 (≈ 27.7 µM) | > 10 | 4 (≈ 15.9 µM)
CCOC(=O)C(CCSC[C@H]1OC(n2ccc3c(N)ncnc32)[C@H](O)[C@@H]1O)NC(C)=O (some centres undefined) | 70 (≈ 154 µM) | > 40 | > 70 | 5 (≈ 11 µM) | > 20 | > 4 | 15 (≈ 33.1 µM) | 70 (≈ 154 µM) | > 100 | 20 (≈ 44.1 µM) | 20 (≈ 44.1 µM) | 70 (≈ 154 µM) | > 30
Nc1ncnc2c([C@@H]3O[C@H](CSCCC(N)C(=O)O)C[C@H]3O)n[nH]c12 (some centres undefined) | > 40 | > 40 | > 40 | > 40 | > 40 | > 100 | > 40 | > 40 | > 40 | > 40 | > 40 | > 40 | > 40
CCCOC(=O)C(CCSC[C@H]1OC(n2ccc3c(N)ncnc32)[C@H](O)[C@@H]1O)NC(=O)COC (some centres undefined) | 100 (≈ 201 µM) | 20 (≈ 40.2 µM) | > 40 | 2 (≈ 4.02 µM) | > 20 | 0.8 (≈ 1.61 µM) | 4 (≈ 8.04 µM) | 100 (≈ 201 µM) | > 70 | 10 (≈ 20.1 µM) | 15 (≈ 30.1 µM) | 20 (≈ 40.2 µM) | > 30
COCC(=O)NC(CCSC[C@H]1OC(n2ccc3c(N)ncnc32)[C@H](O)[C@@H]1O)C(=O)OC(C)C (some centres undefined) | > 200 | > 200 | > 200 | 20 (≈ 40.2 µM) | 100 (≈ 201 µM) | > 100 | 7 (≈ 14.1 µM) | > 200 | > 200 | 70 (≈ 141 µM) | > 100 | > 150 | > 200
Nc1ncnc2c([C@@H]3O[C@H](CO)C[C@H]3O)n[nH]c12 | > 400 | 300 (≈ 1190 µM) | > 400 | > 400 | > 400 | > 100 | > 400 | > 400 | > 400 | > 400 | > 200 | > 400 | > 200
Nc1ncnc2c(C3O[C@H](CCl)[C@@H](O)[C@H]3O)n[nH]c12 (some centres undefined) | > 400 | 70 (≈ 245 µM) | > 100 | > 400 | > 200 | > 100 | 300 (≈ 1050 µM) | > 400 | > 100 | > 200 | 70 (≈ 245 µM) | > 200 | > 100
Nc1nccc2c1ncn2[C@H]1CC[C@@H](CO)O1 | > 200 | > 100 | > 100 | > 100 | > 200 | > 100 | > 100 | > 200 | > 100 | > 100 | > 100 | > 200 | > 100
COCC(=O)NC(CCSC[C@H]1OC(n2ccc3c(N)ncnc32)[C@H](O)[C@@H]1O)C(=O)O (some centres undefined) | > 400 | > 400 | > 400 | > 20 | > 400 | > 200 | > 400 | > 400 | > 400 | > 400 | > 400 | > 400 | > 400
CCCOC(=O)C(CCSC[C@H]1OC(n2ccc3c(N)ncnc32)[C@H](O)[C@@H]1O)NC(=O)C(F)(F)F (some centres undefined) | > 100 | 70 (≈ 134 µM) | 70 (≈ 134 µM) | > 10 | > 20 | – | 0.7 (≈ 1.34 µM) | > 100 | > 200 | > 10 | > 150 | > 10 | > 100
CCOC(=O)C(N)CCSC[C@H]1OC(n2ccc3c(N)ncnc32)[C@H](O)[C@@H]1O (some centres undefined) | 70 (≈ 170 µM) | > 100 | > 100 | 7 (≈ 17 µM) | 20 (≈ 48.6 µM) | – | 7 (≈ 17 µM) | 70 (≈ 170 µM) | > 100 | 20 (≈ 48.6 µM) | 20 (≈ 48.6 µM) | 20 (≈ 48.6 µM) | > 70
CCOC(=O)C(CCSC[C@H]1OC(n2ccc3c(N)ncnc32)[C@H](O)[C@@H]1O)NC(=O)COC (some centres undefined) | 150 (≈ 310 µM) | > 400 | 300 (≈ 620 µM) | 70 (≈ 145 µM) | > 70 | – | 2 (≈ 4.14 µM) | > 200 | > 400 | > 100 | > 150 | > 100 | 300 (≈ 620 µM)
Nc1nccc2c1ncn2[C@@H]1O[C@H](CO)[C@@H](O)[C@H]1O | > 400 | 0.4 (≈ 1.5 µM) | 70 (≈ 263 µM) | 0.7 (≈ 2.63 µM) | > 2 | – | 1 (≈ 3.76 µM) | > 400 | > 400 | 100 (≈ 376 µM) | > 200 | > 400 | 0.4 (≈ 1.5 µM)
Nc1ncnc2c1ccn2[C@@H]1O[C@H](CO)[C@@H](O)[C@H]1O [TUBERCIDIN] | 0.2 (≈ 0.751 µM) | 0.02 (≈ 0.0751 µM) | > 0.1 | 0.07 (≈ 0.263 µM) | 0.07 (≈ 0.263 µM) | – | > 0.1 | 0.2 (≈ 0.751 µM) | > 0.1 | 0.2 (≈ 0.751 µM) | 0.07 (≈ 0.263 µM) | > 0.2 | 0.02 (≈ 0.0751 µM)
Nc1ncnc2c1ncn2C[C@H](O)CO [(S)-DHPA] | > 400 | 10 (≈ 47.8 µM) | > 400 | 20 (≈ 95.6 µM) | > 70 | – | 40 (≈ 191 µM) | > 400 | > 400 | > 400 | > 70 | > 400 | 7 (≈ 33.5 µM)
Nc1ncnc2c1CCN2[C@@H]1O[C@H](CSCCC(N)C(=O)O)C[C@H]1O (some centres undefined) | > 200 | 100 (≈ 271 µM) | > 200 | 20 (≈ 54.1 µM) | 20 (≈ 54.1 µM) | – | 2 (≈ 5.41 µM) | > 200 | > 200 | > 100 | > 200 | > 100 | 70 (≈ 189 µM)
